According to ChEMBL document CHEMBL1141155, “The protein farnesyltransferase inhibitor Tipifarnib as a new lead for the development of drugs against Chagas disease” (J Med Chem, 2005):

What was measured:
[1] = Inhibitory concentration against Protein farnesyltransferase of Trypanosoma cruzi
Trypanosoma cruzi = assay: Inhibition of Trypanosoma cruzi growth; type: functional; details: read-out: ED50 (the source's name)

With Cn1cncc1[C@@](N)(c1ccc(Cl)cc1)c1ccc2c(c1)c(-c1cccc(Cl)c1)cc(=O)n2C [TIPIFARNIB] the IC50 [1] was ~0.075 µM and the EC50 (Trypanosoma cruzi) was 0.004 µM.
